# Results published in patent publication US12043625B2, “Pyridine derivatives with c-linked cyclic substituents as cGAS inhibitors” (BOEHRINGER INGELHEIM INTERNATIONAL GMBH, priority 2021, dated 2024).
# Key:
# Human cGAS = Human cGAS (Homo sapiens (Human), UniProt Q8N884); experiment: Human cGAS enzyme assay (hcGAS IC50, in vitro), cGAMP formation by RapidFire MS; type: biochemical; conditions: 45 bp dsDNA, GTP/ATP;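 note: compounds preincubated 60 min, then GTP and ATP (30 µM each) added for 90 min at room temperature, cGAMP read relative to cyclic-di-GMP internal standard, no-enzyme/DNA wells as 0%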
# Chain of Human cGAS (Q8N884 whole entry): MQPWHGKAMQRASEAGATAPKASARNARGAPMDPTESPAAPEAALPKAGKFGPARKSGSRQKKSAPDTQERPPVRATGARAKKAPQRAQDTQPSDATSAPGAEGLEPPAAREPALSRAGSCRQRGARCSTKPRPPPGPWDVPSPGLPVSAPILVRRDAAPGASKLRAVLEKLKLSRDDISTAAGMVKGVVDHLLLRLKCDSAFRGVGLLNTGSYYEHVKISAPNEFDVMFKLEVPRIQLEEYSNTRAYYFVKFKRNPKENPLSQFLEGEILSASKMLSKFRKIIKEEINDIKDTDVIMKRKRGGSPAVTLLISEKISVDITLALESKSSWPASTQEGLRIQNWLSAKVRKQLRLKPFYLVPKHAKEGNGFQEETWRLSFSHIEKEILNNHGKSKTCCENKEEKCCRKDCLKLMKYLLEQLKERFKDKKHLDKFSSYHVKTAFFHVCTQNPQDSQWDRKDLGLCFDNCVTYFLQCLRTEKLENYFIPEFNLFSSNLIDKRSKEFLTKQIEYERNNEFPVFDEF
# [1] = test system: IFN induction in virus-stimulated THP1 cells; experiment: Human cGAS cell assay, baculovirus-stimulated THP1-Dual cells, Lucia luciferase reporter (THP1(vir) IC50); type: cell-based; conditions: for IC50: Homo sapiens, THP-1, baculovirus-stimulated THP1-Dual cells, 18 h; for Ratio THP(cGAMP) IC50/THP(vir) IC50: selectivity for cGAS inhibition;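 for all read-outs here: IRF-dependent luminescence, 8 concentrations up to 10 µM in 1% DMSO, 0% = unstimulated cells, 100% = DMSO plus virus, counter assay stimulated with cGAMP downstream of cGAS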
# Description: THP1-Dual™ cells (InvivoGen #thpd-nfis) expressing IRF dependent Lucia luciferase reporter were used as basis for both assays. For the detection of cellular cGAS activity cells were stimulated by a baculovirus (pFastbac-1, Invitrogen, no coding insert) infection that delivers the cGAS enzyme stimulating double-stranded DNA (measurement of THP1(vir) IC50).
# (§1) For the counter assay, cells were stimulated by cGAMP (SigmaAldrich #SML1232) to activate the identical pathway independent and directly downstream of cGAS (measurement of THP1(cAMP) IC50). Pathway activity was monitored by measuring the Lucia luciferase activity induced by either DNA stimulated cGAS enzyme activity (measurement of THP1^(vir) IC50) or by cGAMP directly (measurement of THP1(cAMP) IC50, counter assay).
# Typically, 8 concentrations were used with the highest concentration at 10 μM in the final assay volume followed by ˜1:5 dilution steps. DMSO concentration was set to 1% in the final assay volume. The 384 well assay plate contained 21 test compounds (column 1-22), and DMSO in column 23 and 24.
# The baculovirus solution was then added 1:200 (may have varied according to virus batch) to the cells (measurement of THP1(vir) IC50).
# (§2) 30 μL of the cell/virus-mix were added to each well of the compound plate from column 1-23 via MultiDrop Combi dispenser (5000 cells/well). In column 24, 30 μl/5000 cells/well without virus were added as a low control.
# (§3) The plates were then incubated for 18 h at 37° C. in a humidified incubator.
# (§4) Following that, 15 μL of QuantiLuc detection reagent (InvivoGen #rep-qlcg5) were added to each well using a MultiDrop Combi. Measurement was done immediately after the addition using an EnVision reader (US-luminescence read-mode).
# Data Evaluation and Calculation:
# (§5) For data evaluation and calculation, the measurement of the low control was set as 0% control and the measurement of the high control was set as 100% control. The IC50 values were calculated using the standard 4 parameter logistic regression formula. Calculation: [y=(a−d)/(1+(x/c)^b)+d], a=low value, d=high value; x=conc M; c=1C50 M; b=slope
# [2] = test system: IFN induction in cGAMP-stimulated THP1 cells; experiment: cGAMP stimulated counter cell assay, THP1-Dual cells, Lucia luciferase reporter (THP1(cGAMP) IC50); type: cell-based; conditions: Homo sapiens, THP-1, THP1-Dual cells stimulated with 10 μM cGAMP;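 note: IRF-driven Lucia luciferase luminescence after 18 h at 37° C, compound series topping at 10 µM with 1% DMSO, unstimulated wells as 0% and DMSO wells as 100%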
# Description: 6.2 Method: Human cGAS Cell Assay and cGAMP Stimulated Counter Cell Assay (THP1(vir) IC50 and THP1(cGAMP) IC50)
# THP1-Dual™ cells (InvivoGen #thpd-nfis) expressing IRF dependent Lucia luciferase reporter were used as basis for both assays.
# as §1
# Compounds were delivered in 10 mM DMSO solution, serially diluted and transferred to the 384 well assay plate (Greiner #781201) using an Echo acoustic dispenser. Typically, 8 concentrations were used with the highest concentration at 10 μM in the final assay volume followed by ˜1:5 dilution steps. DMSO concentration was set to 1% in the final assay volume. The 384 well assay plate contained 21 test compounds (column 1-22), and DMSO in column 23 and 24.
# as §2, §3, §4
# Data Evaluation and Calculation:
# as §5
# [3] = test system: IFN induction in dsDNA-stimulated human whole blood; experiment: Human whole blood assay, dsDNA transfection, IFNα2a production (hWB IC50); type: cell-based;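 note: cGAS pathway activity, IFNα2a in plasma by MSD immunoassay after 22 h at 37 °C, 8 concentrations up to 10 µM in 0.1% DMSO, DMSO controls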
# Protocol: For the detection of cellular cGAS activity human whole blood was stimulated by transfection with double stranded DNA. Pathway activity was monitored by measuring the IFNα2α production.
# Typically, 8 concentrations were used with the highest concentration at 10 μM in the final assay volume followed by ˜1:5 dilution steps. DMSO concentration was set to 0.1% in the final assay volume. The 96-well assay plate contained 10 test compounds, and DMSO in control wells.
# Whole blood was kept at room temperature for a maximum of 3 hours after collection until use in the assay.
# 160 μl of the whole blood samples was transferred to each well of the 96-well assay plates filled with compound/OptiMEM. All assay plates were prepared as duplicates with blood from different donors. Blood plates were kept at room temperature for 60 minutes and continuous shaking with 450 rpm, covered with the lid, but not sealed.
# 20 μl OptiMEM and 9.6:1 Fugene was added to all low control wells.
# After covering assay plates with aera seals and the lid, blood plates were kept at room temperature for 30 minutes and continuous shaking with 450 rpm, followed by an overnight incubation of 22 h at 37° C. in the incubator, without shaking.
# U-Plex MSD GOLD 96-well Small Spot Strepavidin SECTOR Plates (Meso Scale Diagnostics #L45SA-5) were coated with 25 μl diluted capture antibody. Coated plates were incubated for 60 min at room temperature under continuous shaking at 700 rpm. MSD IFNα-2a plates were washed three times with 150 μl wash buffer (1×HBSS, 0.05% Tween).
# After blocking the plates with 100 μl block solution/well (1×HBSS with 0.2% Tween, 2% BSA) for 60 min at room temperature and continuous shaking at 700 rpm, plates were emptied as dry as possible by dumping just before continuing with the human plasma.
# Whole Blood assay plates were centrifuged at 1600 rpm for 10 minutes. 25 μl of supernatant was transferred with a pipetting robot from each whole blood plate to the corresponding IFNα-2a plate.
# Plates were sealed with microplate seals and kept at room temperature again under continuous shaking at 700 rpm for two hours.
# Next MSD IFNα-2a plates were washed three times with 150 μl wash buffer (1×HBSS, 0.05% Tween), before adding 25 μl MSD SULFO-TAG IFNα-2a Antibody solution (1:100 diluted in Diluent 3 (Meso Scale Diagnostics #R50AP-2) to each well of the plates.
# Afterwards plates were sealed with microplate seals and kept at room temperature again under continuous shaking at 700 rpm for two hours. Finally, MSD IFNα-2α plates were washed three times with 150 μl wash buffer (1×HBSS, 0.05% Tween). 150 μl 2× Read buffer was added to each well and plates were immediately measured with the MSD Sector S600 Reader using the vendor barcode.
# For data evaluation and calculation, % control calculation of each well was based on the mean of high (DNA stimulated control) and mean of low (unstimulated control) controls by using the following formula: [counts(sample)−counts(low))/(counts(high)−counts(low))]*100
# The IC50 values were calculated using the standard 4 parameter logistic regression formula. Calculation: [y=(a−d)/(1+(x/c)^b)+d], a=low value, d=high value; x=conc M; c=1C50 M; b=slope
smiles,measurement,setting,value
O=C(O)[C@@H]1C[C@H](Oc2ncc(Cl)cc2C2(F)CCS(=O)(=O)CC2)CN1c1nc(C(F)(F)F)nc2c1oc1ccccc12 [Example 2.02],IC50,Human cGAS,4 nM
same,IC50,[1],540 nM
same,Ratio THP(cGAMP) IC50/THP(vir) IC50,[1],>31
same,IC50,[2],> 16600 nM
same,IC50,[3],89 nM
O=C(O)[C@@H]1C[C@H](Oc2ncc(Cl)cc2[C@]2(F)CCS(=O)(=O)C3(CC3)C2)CN1c1nc(C(F)F)nc2c1oc1ccccc12 [Example 1.17],IC50,Human cGAS,3 nM
same,IC50,[1],54 nM
same,Ratio THP(cGAMP) IC50/THP(vir) IC50,[1],412
same,IC50,[2],22100 nM
same,IC50,[3],45 nM
C[C@H]1COCC[C@]1(F)c1cc(Br)cnc1O[C@H]1C[C@@H](C(=O)O)N(c2nc(C(F)F)nc3c2oc2ccccc23)C1 [Example 2.16],IC50,Human cGAS,4 nM
same,IC50,[1],125 nM
same,Ratio THP(cGAMP) IC50/THP(vir) IC50,[1],133
same,IC50,[2],> 16600 nM
same,IC50,[3],325 nM
COC(=O)[C@@H]1C[C@H](Oc2ncc(Cl)cc2[C@@]2(F)CCS(=O)(=O)C[C@@H]2C)CN1c1nc(C(F)F)nc2c1oc1ccccc12 [Example P02],IC50,Human cGAS,> 9950 nM
same,IC50,[1],29 nM
same,IC50,[2],> 16600 nM
same,IC50,[3],140 nM
"Cc1nc(N2CCC[C@H]2C(=O)O)c2oc3ccccc3c2n1 [Example 15, reference compound]",IC50,[1],> 17000 nM
same,IC50,[2],> 17000 nM
C#Cc1cnc(O[C@H]2C[C@@H](C(=O)O)N(c3nc(C(F)(F)F)nc4c3oc3ccccc34)C2)c(C2(F)CCS(=O)(=O)CC2)c1 [Example 2.07],IC50,Human cGAS,2 nM
same,IC50,[1],688 nM
same,Ratio THP(cGAMP) IC50/THP(vir) IC50,[1],>24
same,IC50,[2],> 16600 nM
same,IC50,[3],97 nM
C#Cc1cnc(O[C@H]2C[C@@H](C(=O)O)N(c3nc(C(F)F)nc4c3oc3ccccc34)C2)c([C@]2(F)CC(C)(C)S(=O)(=O)C[C@@H]2C)c1 [Example 1.10],IC50,Human cGAS,40 nM
same,IC50,[1],82 nM
same,Ratio THP(cGAMP) IC50/THP(vir) IC50,[1],28
same,IC50,[2],2240 nM
same,IC50,[3],70 nM
"O=C(O)[C@@H]1C[C@H](Oc2ncc(Cl)cc2C2(F)CCS(=O)(=O)CC2)CN1c1nc(C(F)F)nc2c1oc1ccccc12 [Example 2.01, (2S,4S)-4-{[5-Chloro-3-(4-fluoro-1,1-dioxo-1-I-6-thian-4-yl)pyridin-2-yl]oxy}-1-[4-(difluoromethyl)-8-oxa-3,5-diazatricyclo[7.4.0.0^2,7]trideca-1(13),2,4,6,9,11-hexaen-6-yl]pyrrolidine-2-carboxylic acid]",IC50,Human cGAS,3 nM
same,IC50,[1],179 nM
same,Ratio THP(cGAMP) IC50/THP(vir) IC50,[1],>93
same,IC50,[2],> 16600 nM
C[C@@H]1CS(=O)(=O)CC[C@@]1(F)c1cc(Cl)cnc1O[C@H]1C[C@@H](C(=O)O)N(c2nc(C(F)F)nc3c2oc2ccccc23)C1 [Example 1.12],IC50,Human cGAS,9 nM
same,IC50,[1],314 nM
same,IC50,[2],15300 nM
"Cc1nc(N2C[C@@H](Nc3ccncc3)C[C@H]2C(=O)O)c2oc3ccccc3c2n1 [Example 38, reference compound]",IC50,[1],> 17000 nM
same,IC50,[2],> 17000 nM
same,IC50,[3],> 9990 nM
"Cc1nc(N2C[C@@H](CC(=O)Nc3ccncc3)C[C@H]2C(=O)O)c2oc3ccccc3c2n1 [Example 28, reference compound]",IC50,[1],> 32000 nM
same,IC50,[2],> 17000 nM
same,IC50,[3],> 9990 nM
"CC(C)(C(=O)N[C@H]1C[C@@H](C(=O)O)N(c2nc(C(F)(F)F)nc3c2oc2ccccc23)C1)c1cn[nH]c1 [Example 58, reference compound]",IC50,[1],21000 nM
same,IC50,[2],23000 nM
same,IC50,[3],> 9980 nM
"C[C@H]1COCC[C@]1(O)c1cc(Cl)cnc1O[C@H]1C[C@@H](C(=O)O)N(c2nc(C(F)F)nc3c2oc2ccccc23)C1 [Example 1.01, (2S,4S)-4-({5-Chloro-3-[(3S,4R)-4-hydroxy-3-methyloxan-4-yl]pyridin-2-yl}oxy)-1-[4-(difluoro-methyl)-8-oxa-3,5-diazatricyclo[7.4.0.0^2,7]trideca-1(13),2,4,6,9,11-hexaen-6-yl]pyrrolidine-2-carboxylic acid]",IC50,Human cGAS,5 nM
same,IC50,[1],530 nM
same,Ratio THP(cGAMP) IC50/THP(vir) IC50,[1],>31
same,IC50,[2],> 16600 nM
